# From patent US4743687A, “Pyridazo (1,2-a) (1,2) diazepine derivatives” (Hoffmann-La Roche Inc., priority 1985, dated 1988)
# Target: T1, angiotensin converting enzyme (Oryctolagus cuniculus, UniProt P12822)
# T1 sequence (P12822 34-1310): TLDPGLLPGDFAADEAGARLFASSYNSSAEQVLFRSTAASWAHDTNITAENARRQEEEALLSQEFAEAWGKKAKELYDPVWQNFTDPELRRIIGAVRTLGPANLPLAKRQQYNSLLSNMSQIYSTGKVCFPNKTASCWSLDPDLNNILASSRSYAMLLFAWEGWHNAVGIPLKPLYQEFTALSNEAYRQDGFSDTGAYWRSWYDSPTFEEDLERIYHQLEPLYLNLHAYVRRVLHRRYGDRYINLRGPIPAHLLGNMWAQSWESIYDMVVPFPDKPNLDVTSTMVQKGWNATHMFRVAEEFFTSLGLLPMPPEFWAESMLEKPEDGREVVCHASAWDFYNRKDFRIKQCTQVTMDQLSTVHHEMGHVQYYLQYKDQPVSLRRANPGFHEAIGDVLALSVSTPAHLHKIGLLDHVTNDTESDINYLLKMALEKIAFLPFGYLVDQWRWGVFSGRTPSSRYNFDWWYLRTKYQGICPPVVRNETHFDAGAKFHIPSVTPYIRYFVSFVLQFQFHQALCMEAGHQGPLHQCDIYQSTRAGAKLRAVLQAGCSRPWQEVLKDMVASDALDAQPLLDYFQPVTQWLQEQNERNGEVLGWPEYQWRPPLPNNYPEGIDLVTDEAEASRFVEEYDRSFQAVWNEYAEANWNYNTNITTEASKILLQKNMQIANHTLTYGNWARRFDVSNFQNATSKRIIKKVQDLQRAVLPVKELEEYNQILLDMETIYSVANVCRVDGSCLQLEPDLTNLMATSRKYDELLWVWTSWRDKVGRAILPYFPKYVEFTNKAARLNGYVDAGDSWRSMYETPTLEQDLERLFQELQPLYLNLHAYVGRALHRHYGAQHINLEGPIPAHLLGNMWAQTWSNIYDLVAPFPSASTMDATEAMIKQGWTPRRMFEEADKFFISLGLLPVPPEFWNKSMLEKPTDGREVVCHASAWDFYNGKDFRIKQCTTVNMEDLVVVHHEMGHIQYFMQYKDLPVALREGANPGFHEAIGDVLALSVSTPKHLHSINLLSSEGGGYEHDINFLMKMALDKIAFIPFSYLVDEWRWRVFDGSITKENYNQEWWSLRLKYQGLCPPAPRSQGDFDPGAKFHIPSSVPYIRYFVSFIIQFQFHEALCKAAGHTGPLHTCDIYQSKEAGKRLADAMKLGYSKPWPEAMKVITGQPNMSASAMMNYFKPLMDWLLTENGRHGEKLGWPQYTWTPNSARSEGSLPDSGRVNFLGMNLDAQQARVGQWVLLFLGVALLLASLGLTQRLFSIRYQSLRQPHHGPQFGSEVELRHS
# Test: in vitro inhibition of angiotensin converting enzyme (hippuryl-histidyl-leucine cleavage)
# Type: biochemical
# Settings: substrate hippuryl-histidylleucine 2 mM, pH 8.3, 24 minutes at 37° C.; esters cleaved by hog liver esterase before test
# Procedure: The activity of the present compounds in inhibiting angiotensin converting enzyme in vitro can be determined by the following test.
# The method used is based on the method of Cushman and Cheung (Biochem. Pharmacol., 20. 1637-1648) incorporating the modifications introduced by Hayakari et al (Anal. Biochem., 84. 361-369). The substrate (hippuryl-histidylleucine, 2 mM) is incubated with angiotensin converting enzyme in the presence or absence of various concentrations of test substance in potassium phosphate buffer (pH 8.3; 100 mM) containing sodium chloride (300 mM) for 24 minutes at 37° C. (total value 500 μl). (if the test substance is an ester, it is appropriate to cleave it by means of hog liver esterase before carrying out the test). The reaction is terminated by the addition of 3 ml of potassium phosphate buffer (pH 8.3; 200 mM) at 0° C. 2,4,6-Trichloro-s-triazine (3%) in 1.5 ml of dioxan is added and the mixture is agitated until the yellow chromophore has developed fully. The samples are then centrifuged to remove any precipitate which has formed. The yellow chromophore formed by the reaction of the 2,4,6-trichloro-s-triazine with free hippuric acid is measured spectrophotometrically at 382 nm. […]
compound,measurement,value
"O=C(O)[C@@H]1CCCN2CCC[C@H](CP(=O)(O)O)C(=O)N12 [Compound A, Octahydro9(S)--phosphonomethyl10-oxo-6H--pyridazo[1,2a][1,2]diazepine1(S)-carboxylic acid]",IC50,9.6 nM
